Assay results: ChEMBL document CHEMBL1152140 (Bioorg Med Chem Lett, 2008)

Experiments:
[1] = Inhibition of potato LOX5 by enzyme immuno assay; design: species or system Solanum tuberosum
Rattus norvegicus = test: Antiinflammatory activity against carrageenan-induced orally dosed rat assessed paw edema after 3 hrs; assay type: functional; conditions: po
[2] = molecular target: T1, Prostaglandin G/H synthase 1 (Ovis aries, UniProt P05979)
T1 sequence (P05979 whole entry): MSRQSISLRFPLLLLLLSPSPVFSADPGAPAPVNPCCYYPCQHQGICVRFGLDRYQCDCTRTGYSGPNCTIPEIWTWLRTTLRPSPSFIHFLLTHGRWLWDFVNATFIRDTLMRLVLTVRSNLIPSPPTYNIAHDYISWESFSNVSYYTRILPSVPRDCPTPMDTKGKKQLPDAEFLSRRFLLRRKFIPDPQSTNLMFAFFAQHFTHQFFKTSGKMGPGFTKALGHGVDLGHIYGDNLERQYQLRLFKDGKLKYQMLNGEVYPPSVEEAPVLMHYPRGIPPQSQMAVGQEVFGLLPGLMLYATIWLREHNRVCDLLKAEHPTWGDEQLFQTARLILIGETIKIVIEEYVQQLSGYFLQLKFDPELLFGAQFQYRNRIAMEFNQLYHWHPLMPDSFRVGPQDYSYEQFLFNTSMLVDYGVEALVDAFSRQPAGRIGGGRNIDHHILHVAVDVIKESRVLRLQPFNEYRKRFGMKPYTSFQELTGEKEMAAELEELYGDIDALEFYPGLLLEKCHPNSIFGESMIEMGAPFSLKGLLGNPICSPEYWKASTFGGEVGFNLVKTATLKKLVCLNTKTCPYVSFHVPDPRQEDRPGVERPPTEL
Description: Inhibition of ovine COX1 by enzyme immuno assay

IC50 [1] [µM] | IC50 [2] [µM] | Compound | ED50 (Rattus norvegicus) [mg/kg]
0.35 | 13.2 | CS(=O)(=O)c1ccc(-n2nc(C(F)(F)F)cc2-c2ccn(O)c(=O)c2)cc1 | 66.9
4.9 | 10.2 | NS(=O)(=O)c1ccc(-n2nc(C(F)(F)F)cc2-c2ccn(O)c(=O)c2)cc1 | 99.8
3.47 | – | O=C(O)/C=C/c1ccc(O)c(O)c1 [CAFFEIC ACID] | –
> 10 | – | Cc1ccc(-c2cc(C(F)(F)F)nn2-c2ccc(S(N)(=O)=O)cc2)cc1 [CELECOXIB] | –
